Source: EP0986568B1, “NOVEL CLASS OF NUCLEIC ACID CATIONIC TRANSFECTING AGENTS” (Aventis Pharma S.A., priority 1997, dated 1998)

Test system: ADN
Test: Association with DNA, ethidium bromide fluorescence
Type: binding
Settings: 6 nmoles d'agent transfectant/µg d'ADN, 5 µg bromure d'éthidium/ml; for fluorescence dans le chlorure de sodium NaCl à 300 mM: NaCl 300 mM; for fluorescence dans l'eau: in water
Source text: • Les purifications sur HPLC (High Performance Liquid Chromatography) ont été effectuées avec un appareil Waters LC 4000, sur une colonne Vydac C4 éluée par un gradient d'acétonitrile dans l'eau. • Les mesures de fluorescence ont été réalisées sur Perkin Elmer LS50B, en utilisant des longueurs d'onde d'excitation et d'émission respectivement de 260 nm et 590 nm. Les largeurs de fentes pour l'excitation et l'émission sont réglées à 5 nm. La valeur de fluorescence est enregistrée après ajout de 5 µg de bromure d'éthidium/ml en concentration finale. • Les spectres de résonance magnétique nucléaire (RMN) ont été enregistrés, à 300,13 MHz pour le proton ou à 75,47 MHz pour le carbone, sur un appareil Bruker MSL 300 dans le chloroforme deutérié.
Les agents transfectants selon l'invention ont été mis en solution dans l'eau à 10 mM. Les solutions ainsi obtenues sont transparentes et correspondent à une organisation sous forme de micelles de lipide cationique.
Les complexes agent tranfectant/ADN ont été réalisés suivant un rapport de 6 nmoles d'agent transfectant/µg d'ADN.

méthyl-dioctadécylamido-phtalyl-6-tri-O-(amino-2'-éthyl)-2,3,4-β-D-galactopyranoside [8(b)]
fluorescence dans le chlorure de sodium NaCl à 300 mM: 60%
fluorescence dans l'eau: 7%

méthyl-dioctadécylamido-succinyl-6-tri-O-(amino-2'-éthyl)-2,3,4-β-D-galactopyranoside [8(a)]
fluorescence dans le chlorure de sodium NaCl à 300 mM: 55%
fluorescence dans l'eau: 6%
